Holding throughout (experiment): growth of human tumour cells (NCI), 48 h
Experiment [1] concerns 786-0.
Experiment [2] concerns A549.
Experiment [3] concerns CAKI-1.
In experiment [4] the test system is CCRF-CEM.
For experiment [5], the system named is IGROV-1.
Experiment [6] deals with K562.
Experiment [7] deals with KM12.
Experiment [8] deals with LOX IMVI.
In experiment [9] the test system is MDA-MB-435.
The subject of experiment [10] is MDA-N.
Experiment [11] concerns MOLT-4.
Experiment [12] deals with NCI-H522.
The test system of experiment [13] is OVCAR-3.
Experiment [14] has as its system RPMI-8226.
Experiment [15] concerns SF-268.
Experiment [16] has as its system SK-MEL-5.
The subject of experiment [17] is SW-620.
For experiment [18], the system named is UACC-62.
In experiment [19] the test system is UO-31.

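Method: 48-hour compound exposure of cells in 96-well plates, five concentrations, linear interpolation of endpoints. GI50 marks 50% less growth.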 Active and inactive are the calls of the source. Rule as the data show it: active = GI50 up to about 1.1 µM and inactive = higher.

With `COC(=O)C1(Cc2ccc3c(c2)CCC3)Cc2ccc3c(c2C1=O)CCC3` (stereo not given), the GI50 in [1] is 7.33 µM (inactive); in experiment [2] it was 9.48 µM (inactive); in [3] it was 5.45 µM (inactive); in experiment [4], 5.21 µM (inactive); in [5], 5.46 µM (inactive); in experiment [6] it was 3.37 µM (inactive). Moreover, the GI50 was 4.12 µM (inactive) in [7]; 5.87 µM (inactive) in experiment [8]; 1.73 µM (inactive) in experiment [9]; 2.01 µM (inactive) in experiment [10]; 4.06 µM (inactive) in experiment [11]; 3.92 µM (inactive) in [12]. In addition, the GI50 was 4.26 µM (inactive) in experiment [13]; 5.4 µM (inactive) in [14]; 10 µM (inactive) in [15]; 4.35 µM (inactive) in experiment [16]; 4.11 µM (inactive) in [17]; 3.84 µM (inactive) in experiment [18]. For the same compound, the GI50 in experiment [19] is 10.6 µM (inactive).

For `Cc1cc(O)nc(/N=C(\N)Nc2ccc(Cl)cc2)n1`, the GI50 in experiment [1], in experiment [2], in experiment [3], in [4], in [5] and in experiment [6] was > 100 µM (inactive) throughout. Moreover, the GI50 in [7], in [8], in experiment [9], in experiment [10], in [11] and in experiment [12] was > 100 µM (inactive) in each case. For the same compound, the GI50 in experiment [13], in experiment [14], in experiment [15], in experiment [16], in experiment [17] and in experiment [18] was > 100 µM (inactive) each time. Further, the GI50 in [19] was > 100 µM (inactive).

Consider `COC(=O)c1ccccc1Nc1ccccc1C(=O)OC`, for which the GI50 in experiment [1] is 53.5 µM (inactive); in [2], 93.1 µM (inactive); in experiment [3] it was > 100 µM (inactive); in experiment [4], > 100 µM (inactive); in experiment [5], 89.3 µM (inactive); in [6], > 100 µM (inactive). Also, the GI50 in experiment [7] was > 100 µM (inactive); in [8], 56.1 µM (inactive); in experiment [9], > 100 µM (inactive); in experiment [10], > 100 µM (inactive); in experiment [11], > 100 µM (inactive); in [12] it was 32.1 µM (inactive). For the same compound, the GI50 in experiment [13] was 79.6 µM (inactive); in experiment [14], 64.1 µM (inactive); in [15], 54.2 µM (inactive); in experiment [16], 54.7 µM (inactive); in [17] it was > 100 µM (inactive); in [18], > 100 µM (inactive).

On to `O=C1/C(=C\c2cccc(Oc3ccccc3)c2)SC(c2ccccc2)N1Cc1ccccc1` (stereo not given), for which the GI50 in [1] is 34.8 µM (inactive); in [2] it was 29.4 µM (inactive); in [3] it was 49.7 µM (inactive); in experiment [4], 17.1 µM (inactive); in [6] it was 29.9 µM (inactive); in [7], 24.5 µM (inactive). The GI50 in experiment [8] was 15.5 µM (inactive); in experiment [9] it was 23.3 µM (inactive); in [10], 17 µM (inactive); in experiment [11], 30.1 µM (inactive); in experiment [12] it was 18.2 µM (inactive); in [13] it was 23.5 µM (inactive). Further, the GI50 was 24.3 µM (inactive) in experiment [14]; 35 µM (inactive) in experiment [15]; 14.8 µM (inactive) in [16]; 38.3 µM (inactive) in experiment [17]; 29.3 µM (inactive) in experiment [18]; 25.7 µM (inactive) in experiment [19].

Take `COc1ccc(C[C@H]2NC[C@H](OC(C)=O)[C@H]2OC(C)=O)cc1`: the GI50 in [1] was 0.0776 µM (active); in [2] it was 0.151 µM (active); in [3] it was 0.144 µM (active); in [4] it was 0.126 µM (active); in experiment [5], 0.15 µM (active); in experiment [6] it was 0.221 µM (active). In addition, the GI50 in [7] was 0.192 µM (active); in experiment [8], 0.067 µM (active); in experiment [9], 0.164 µM (active); in experiment [10], 0.133 µM (active); in experiment [11] it was 0.205 µM (active); in experiment [12], 0.0525 µM (active). Moreover, the GI50 in experiment [13] was 0.233 µM (active); in experiment [14] it was 0.275 µM (active); in experiment [15], 0.0614 µM (active); in [16], 0.0665 µM (active); in experiment [17] it was 0.186 µM (active); in experiment [18], 0.288 µM (active). The GI50 in experiment [19] is 0.0583 µM (active).

Regarding `NC1NCCC(=O)N1CCc1c[nH]c2ccccc12` (stereo not given), the GI50 was 20 µM (inactive) in experiment [1]; 26.1 µM (inactive) in [2]; 29.2 µM (inactive) in [3]; 23.6 µM (inactive) in [4]; 25.4 µM (inactive) in experiment [5]; 22.4 µM (inactive) in experiment [6]. Further, the GI50 was 15.5 µM (inactive) in experiment [7]; 12.9 µM (inactive) in [8]; 17 µM (inactive) in [9]; 17.6 µM (inactive) in experiment [10]; 87.5 µM (inactive) in experiment [12]; 20.9 µM (inactive) in experiment [13]. Moreover, the GI50 is 37.2 µM (inactive) in experiment [14]; 22.1 µM (inactive) in experiment [15]; 16.9 µM (inactive) in [16]; 21.3 µM (inactive) in experiment [17]; 20.1 µM (inactive) in experiment [18]; 41.6 µM (inactive) in experiment [19].

Turning to `O=C1COc2cc(N3CCN(c4cccc(C(F)(F)F)c4)CC3)ccc2N1`, the GI50 in experiment [1], in experiment [2], in experiment [3], in experiment [4], in [5] and in [6] was > 100 µM (inactive) each time. In addition, the GI50 in [7] is > 100 µM (inactive); in experiment [8], > 100 µM (inactive); in experiment [9], > 100 µM (inactive); in experiment [10], > 100 µM (inactive); in [11] it was > 100 µM (inactive); in experiment [12], 86.3 µM (inactive). For the same compound, the GI50 in [13], in [14], in [15], in experiment [16], in experiment [17] and in experiment [18] was > 100 µM (inactive) throughout. Moreover, the GI50 in experiment [19] is > 100 µM (inactive).

`C=C1C(=O)OC2CC(=C)C3CC=C(C)C3CC12` (stereo not given): the GI50 in experiment [1] was 15.7 µM (inactive); in [2] it was 35.5 µM (inactive); in experiment [3], 15 µM (inactive); in [4], 8.24 µM (inactive); in experiment [5] it was 18 µM (inactive); in experiment [6], 11 µM (inactive). Besides, the GI50 in [7] is 41.1 µM (inactive); in experiment [8] it was 11.1 µM (inactive); in [9], 15.7 µM (inactive); in experiment [10], 16.4 µM (inactive); in experiment [11], 17.3 µM (inactive); in experiment [12] it was 14.4 µM (inactive). Moreover, the GI50 in experiment [13] was 27.5 µM (inactive); in experiment [14] it was 14.2 µM (inactive); in [15], 34 µM (inactive); in experiment [16], 27 µM (inactive); in [17], 15.7 µM (inactive); in experiment [18] it was 10.4 µM (inactive). Moreover, in experiment [19], the GI50 is 15.9 µM (inactive).

As for `CC(=O)Nc1cccc(N2C(=O)/C(=C\c3cccc(Oc4ccccc4)c3)SC2c2ccccc2)c1` (stereo not given), the GI50 in [1] was > 100 µM (inactive); in experiment [2] it was 94.8 µM (inactive); in [3] it was > 100 µM (inactive); in experiment [4] it was 14.9 µM (inactive); in [6], 25.6 µM (inactive); in experiment [7] it was 80.7 µM (inactive). Moreover, the GI50 in [8] is 37.8 µM (inactive); in experiment [9], 33.9 µM (inactive); in [10], 28.1 µM (inactive); in experiment [11], 26.5 µM (inactive); in [12], 63.5 µM (inactive); in [13], 50.7 µM (inactive). Also, the GI50 was 30.3 µM (inactive) in [14]; 72.1 µM (inactive) in experiment [15]; 33.5 µM (inactive) in [16]; 54.6 µM (inactive) in [17]; 60.3 µM (inactive) in [18]; 47.9 µM (inactive) in [19].

For `c1cc2cc(Cc3ccc4[nH]ccc4c3)ccc2[nH]1`, the GI50 in experiment [1] is 18.3 µM (inactive); in [2], 16.2 µM (inactive); in [3], 17.1 µM (inactive); in experiment [4], 21.9 µM (inactive); in experiment [5] it was 15.9 µM (inactive); in [6], 10 µM (inactive). For the same compound, the GI50 was 14.2 µM (inactive) in experiment [7]; 27.8 µM (inactive) in [8]; 16.4 µM (inactive) in [9]; 12.9 µM (inactive) in experiment [10]; 10.7 µM (inactive) in experiment [11]; 15.6 µM (inactive) in experiment [12]. Also, the GI50 is 12.8 µM (inactive) in [13]; > 10 µM (inactive) in experiment [14]; 20.6 µM (inactive) in [15]; 16.1 µM (inactive) in experiment [16]; 23.1 µM (inactive) in [17]; 17.2 µM (inactive) in experiment [18]. In experiment [19], the GI50 was 16.2 µM (inactive).

As to `O=S(=O)(O)c1cc(O)c2c(/N=C\c3ccccc3O)cc(S(=O)(=O)O)cc2c1`, the GI50 was > 100 µM (inactive) in experiment [1]; > 100 µM (inactive) in [2]; > 100 µM (inactive) in experiment [3]; > 100 µM (inactive) in [4]; > 100 µM (inactive) in [5]; 86.5 µM (inactive) in experiment [6]. Further, the GI50 was > 100 µM (inactive) in experiment [7]; > 100 µM (inactive) in experiment [8]; > 100 µM (inactive) in experiment [9]; > 100 µM (inactive) in experiment [10]; 9.57 µM (inactive) in [11]; > 100 µM (inactive) in [12]. In addition, the GI50 in experiment [13], in [14], in experiment [15], in [16], in experiment [17] and in experiment [18] was > 100 µM (inactive) each time. Further, the GI50 in [19] is > 100 µM (inactive).

The record behind these values is ChEMBL document CHEMBL1201862, “PubChem BioAssay data set” (2004).
